# Experimental data published in patent US20180094232A1, “Methods For The Cryopreservation Of Mammalian Cells” (The General Hospital Corporation, priority 2009, published 2018).
# “Also recorded” adds a separate entry of the source. Read-outs that look alike come from different tables or passages of the source.
# What was measured:
# [1] = Vitrification of CPA laden solutions: opacity after plunging the device into liquid nitrogen; format: physicochemical
# Excerpt: One convenient way for determining non-vitrification is the appearance of opacity as a result of ice formation when freezing solutions in a straw. If there is no visible opacity, it is called apparent vitrification. Although opacity could be easily identified in the traditional plastic straw using the naked eye, it is very difficult to do so for the quartz micro-capillary due to its small dimension. Therefore, an experimental setup shown in FIG. 10 was designed for visualization of opacity during cooling by directing two focused lights on the capillary held against a dark background for all the devices shown in FIG. 1 except the stainless steel micro-capillary. […] This setup was used to determine the threshold (minimum) CPA concentration required to completely avoid opacity during cooling. […] Various total CPA concentrations from 12% to 30% by volume with 2% increments were studied using both the open pulled straw and the thin walled quartz micro-capillary. Since 0.2-1 M sucrose or trehalose has been used in essentially all studies for cryopreservation of mammalian oocytes by both slow freezing and vitrification, further studies were also performed using the quartz micro-capillary for solutions with 0.5 M sucrose or trehalose plus 1.5 M, 2.0 M, and 2.5 M PROH, respectively. The solutions can be loaded into the open pulled straw and quartz micro-capillaries by capillary action while it can be expelled out of the capillaries by using a micro-syringe attached with a soft PEP polymer needle tip to push from the end of the capillaries with a bigger opening.
# [2] = test system: murine embryonic stem (ES) cells; experiment: Attachment efficiency of ES cells post vitrification; format: cell-based; settings: 0.5 M trehalose, 2 M PROH, alone or combined; QMC, liquid nitrogen; day 1
# Method: On the day of experiment, the attached cells were lightly trypsinized for 3-5 minutes and collected. The cells were pelleted at 100×g for 5 minutes and resuspended in cold stem cell media supplemented with 1.5 M 1,2-propanediol (Sigma, St Louis, Mo.) and incubated on ice for 10 minutes. The cells were then spun down at 100×g for 3-5 minutes and resuspended in 1 ml first vitrification solution for 10 minutes. The cells were then spun down at 100×g for 3-5 minutes and resuspended in the second solution at 10×10^6/ml for another 10 minutes. The first vitrification solution was made of ES cell maintenance medium supplemented with 1.5 M 1,2-propanediol, while the second solution was supplemented with 2 M 1,2-propanediol and 0.5 M trehalose (Ferro Pfanstiehl Laboratories, Inc., Waukegan, Ill.). Cells were also cryopreserved using either 0.5 M trehalose or 2 M 1,2-propanediol only for comparison. […]
# Cell attachment and growth was determined by counting the number of cells per field under a 10× objective. […] The attachment efficiency was calculated as the ratio of the total number of cells per field of a cryopreserved sample to that of the control non-frozen sample at day 1. To assess the proliferation of the attached cells, the total number of cells per field was further monitored for 4 days.
# [3] = test system: mouse oocytes; experiment: Survival and morphology of mouse oocytes after vitrification in quartz capillaries; format: cell-based
# Method: The 6-week-old B6D2F1 female mice were superovulated with 7.5 IU of pregnant mare serum gonadotrophin (Sigma-Aldrich, St. Louis, Mo., USA) and 7.5 IU of human chorionic gonadotrophin (Sigma-Aldrich) given by intraperitoneal injections 48 h apart. Fourteen hours after human chorionic gonadotrophin injection, females were anaesthetized with avertin (Sigma-Aldrich) then killed by cervical dislocation and their oviducts were removed. The cumulus-oocytecomplex was released from the ampullary region of each oviduct by puncturing the oviduct with a 27-gauge needle. Cumulus cells were removed by exposure to hyaluronidase (80 IU/ml) (Irvine Scientific, Santa Ana, Calif., USA) for 3 min and washed three times with human tubal fluid (HTF) medium (Irvine Scientific) with 10% fetal bovine serum (FBS; Gibco, Carlsbad, Calif., USA). Oocytes were transferred and cultured in HTF medium (Quinn et al., 1995) containing 10% FBS at 37° C. and 5% CO2 in air until they were vitrified.
# All cryoprotectant solutions were filter-sterilized and stored at 4° C. prior to use. The base cryoprotectant solutions used were PrOH (Sigma-Aldrich) and trehalose (Ferro Pfanstiehl Laboratory, Waukegan, Ill., USA). The concentrations and types of cryoprotectants used were similar to those used in traditional slow-freezing protocols for human oocytes (Gook and Edgar, 2007) and are not typically vitrifiable. For vitrification, isolated mature oocytes were placed into HTF medium supplemented with 10% FBS. Two vitrification protocols using a HEPES-buffered physiological salt solution (FHM; Specialty Media, Lavallette, N.J., USA) (Lawitts and Biggers, 1993) as a base medium were tested. In the first protocol, the oocytes were equilibrated in a 30 μl droplet of 0.75 mol/l PrOH in FHM20 (FHM medium containing 20% FBS) for 5 min, then transferred to a 30 μl droplet of 0.5 mol/l trehalose+1.5 mol/l PrOH in FHM20 for 5 min.
# In the second protocol, oocytes were equilibrated in a 30 μl droplet of 0.75 mol/l PrOH in FHM20 for 5 min, then equilibrated in a 30 μl droplet of 1.5 mol/l PrOH in FHM20 for 5 min before being transferred to a 0.5 mol/l trehalose 2.0 mol/l PrOH in FHM20, for 5 min. The QC straws (The Charles Supper Company, USA) used for vitrification have an outer and inner diameter of approximately 0.2 and 0.18 mm, respectively, and a wall thickness of 0.01 mm (He et al., 2008). After exposure to the vitrification solution, the oocytes were then loaded into the 200 μm QC and plunged into liquid or slush nitrogen for comparison. For warming, the vitrified oocytes were immediately immersed in a holding medium containing 0.2 mol/l trehalose in […]phosphate-buffered saline (PBS; Gibco) at 37° C. for 1 minute. […]
# [4] = test system: primary rat hepatocytes; experiment: Hepatocyte viability post-cryopreservation in QMC, exclusion of trypan blue; format: cell-based; settings: 1.5 M PROH, 0.3 M sucrose, or both, immediately post-cryopreservation
# Method: The vitrification technique was also tested using primary liver cells (hepatocytes) due to their sensitivity to stress, and importance in liver tissue engineering and availability. The cell viability of hepatocytes was determined immediately post-cryopreservation in quartz micro-capillaries (QMC) in the presence of either no CPA; 0.3 M sucrose; 1.5 M 1,2-propanediol (PROH); 1.5 M PROH and 0.3 M sucrose; or 2.0 M PROH and […]. The number of viable cells was determined in both vitrified samples as well as non-vitrified controls (i.e., no freezing). Cell viability was quantified by the exclusion of trypan blue. […] There was only ˜35% survival for cells loaded with 1.5 M PROH prior to cryopreservation. Sucrose (0.3 M) was then added to the cryopreservation solution with 1.5-2 M PROH. […] When 0.3 M sucrose was added to the cryopreservation solution, the immediate viability jumped to ˜75%.
# [5] = cited from earlier work
# [6] = Critical cooling rate to achieve vitrification (Vcc) from Boutron's semi-empirical theory and DSC K4; format: physicochemical
# Excerpt: The critical cooling rate to achieve vitrification (Vcc) is a function of the concentration of cryoprotectant. It has been extensively studied in the case of 1,2-propanediol and other alcohols with relevance in cryobiology, although mainly in the range of cooling rates achievable by differential scanning calorimetry (DSC) techniques. However, it is possible to obtain estimates of the critical cooling rates at other […]. The presence of sugars in equimolar concentrations has shown to have no effect on Vcc in the case of monosaccharides and little effect in the case of sucrose for the concentration used in these studies (0.3 M)(Kuleshova et al., Cryobiology 38: 199-130, 1999). The Vcc can be inferred from Boutron's semi-empirical theory of glass forming tendency (Boutron, Cryobiology 23:88-102, 1986); it is given by:
# To is the initial temperature of crystallization and xg is the amount of ice formed at the critical cooling rate. Many studies in the literature consider a solution to be vitrified when xg≦10^−6 (Liu and McGrath, Proc. 2005 IEEE Eng. Med. Biol. 27th Ann. Conference, p. 7501-7504, 2005). K4 is a constant dependent of the solution and can be determined by DSC. Although there is not data for K4 in the available literature for our solution, some estimation can be done. The values of K4 for 40%, 37.5% and 35% (w/w) of aqueous solutions of 1,2 propanediol are 24.1° C./min, 54.1° C./min and 151° C./min (Ren et al., Cryobiology 31:47-56, 1994). These values of K4 give rise to Vcc values of 8.0×10^2° C./min, 1.8×10^3° C./min and 5.0×10^3° C./min, respectively. So, a tentative value of […] for 1.8 M of 1,2-propanediol is 10^4° C./min. […] The exponential fitting of the data is justified by the theory (Ren et al., supra).
# [7] = both open pulled straw and quartz micro-capillary
compound,measurement,setting,value
"OCCO [Ethylene glycol (EG), ethylene glycol]",threshold concentration for the complete absence of opacity,[1],~4 M
"CC(O)CO (stereo not drawn) [1,2-Propanediol (PROH), 1,2-propanediol]",appearance of the loaded quartz micro-capillary after plunging into liquid nitrogen,"[1]; 1 M (7% v) 1,2-propanediol in FHM",opaque; also recorded: whitish appearance
same,appearance of the loaded quartz micro-capillary after plunging into liquid nitrogen,"[1]; 2 M (14% v) 1,2-propanediol in FHM",clear appearance
same,threshold concentration lower than that of ethylene glycol (EG),[1]; [7],~5 % v
same,threshold concentration lower than that of the combination of EG and PROH in a 1:1 ratio,[1]; [7],2.5 % v
same,threshold concentration for the complete absence of opacity,"[1]; micro-capillary, liquid nitrogen",~2 M
same,attachment efficiency (normalized to control),[2],minimum amount of cells can attach
same,Surviving oocytes,"[3]; liquid nitrogen, 1.5 mol/l PrOH + 0.5 mol/l trehalose in FHM20, QC",18/40 (45.0) %
same,Surviving oocytes,"[3]; liquid nitrogen, 2.0 mol/l PrOH + 0.5 mol/l trehalose in FHM20, QC",19/40 (47.5) %
same,Surviving oocytes,"[3]; slush nitrogen, 1.5 mol/l PrOH + 0.5 mol/l trehalose in FHM20, QC",36/40 (90.0) %
same,Surviving oocytes,"[3]; slush nitrogen, 2.0 mol/l PrOH + 0.5 mol/l trehalose in FHM20, QC",28/40 (70.0) %
same,"cell survival, immediate viability",[4],~35%
same,K4,[5]; 35% (w/w) aqueous solution,151 ° C./min
same,K4,[5]; 37.5% (w/w) aqueous solution,54.1 ° C./min
same,K4,[5]; 40% (w/w) aqueous solution,24.1 ° C./min
same,"K4, tentative value",[6]; 1.8 M,~10^4 ° C./min
same,critical cooling rate to achieve vitrification (Vcc),[6]; 35% (w/w) aqueous solution,5.0×10^3 ° C./min
same,critical cooling rate to achieve vitrification (Vcc),[6]; 37.5% (w/w) aqueous solution,1.8×10^3 ° C./min
same,critical cooling rate to achieve vitrification (Vcc),[6]; 40% (w/w) aqueous solution,8.0×10^2 ° C./min
OC[C@H]1O[C@H](O[C@H]2O[C@H](CO)[C@@H](O)[C@H](O)[C@H]2O)[C@H](O)[C@@H](O)[C@@H]1O [trehalose],attachment efficiency (normalized to control),[2],minimum amount of cells can attach
OC[C@H]1O[C@@](CO)(O[C@H]2O[C@H](CO)[C@@H](O)[C@H](O)[C@H]2O)[C@@H](O)[C@@H]1O [sucrose],"cell survival, immediate viability",[4],less than 10%
